According to ChEMBL document CHEMBL5465560, “Selectivity Literature for EUbOPEN Chemogenomic Library” (2024):

Key:
[1] = biological target: T1, Serine/threonine-protein kinase haspin (Homo sapiens) (UniProt Q8TF76); experiment: Selectivity interaction (KinomeScan (DiscoverX)) EUB0000229b GSG2; conditions: at 10 µM
T1 sequence (whole entry): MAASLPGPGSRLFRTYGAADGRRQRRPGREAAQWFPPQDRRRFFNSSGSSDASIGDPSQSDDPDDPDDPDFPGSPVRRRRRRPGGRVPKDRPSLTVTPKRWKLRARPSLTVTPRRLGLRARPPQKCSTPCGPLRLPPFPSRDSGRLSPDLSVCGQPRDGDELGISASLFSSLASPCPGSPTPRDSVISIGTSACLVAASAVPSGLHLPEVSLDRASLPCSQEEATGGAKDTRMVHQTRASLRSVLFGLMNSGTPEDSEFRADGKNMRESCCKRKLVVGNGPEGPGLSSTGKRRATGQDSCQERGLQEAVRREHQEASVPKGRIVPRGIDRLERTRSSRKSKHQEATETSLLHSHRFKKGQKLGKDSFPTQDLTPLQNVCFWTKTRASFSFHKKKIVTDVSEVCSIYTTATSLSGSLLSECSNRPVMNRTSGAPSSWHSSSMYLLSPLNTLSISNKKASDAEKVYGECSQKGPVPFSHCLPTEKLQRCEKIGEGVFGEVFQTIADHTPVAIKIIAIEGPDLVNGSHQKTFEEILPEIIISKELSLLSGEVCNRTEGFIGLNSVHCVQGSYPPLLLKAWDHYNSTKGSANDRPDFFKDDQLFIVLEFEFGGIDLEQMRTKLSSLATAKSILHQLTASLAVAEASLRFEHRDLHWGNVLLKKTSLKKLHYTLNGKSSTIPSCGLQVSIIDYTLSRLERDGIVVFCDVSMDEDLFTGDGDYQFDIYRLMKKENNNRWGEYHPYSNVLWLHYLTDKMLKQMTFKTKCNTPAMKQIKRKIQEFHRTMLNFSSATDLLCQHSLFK

[2] = biological target: T2, Atypical kinase COQ8B, mitochondrial (Homo sapiens) (UniProt Q96D53); conditions: at 10 µM
T2 sequence (whole entry): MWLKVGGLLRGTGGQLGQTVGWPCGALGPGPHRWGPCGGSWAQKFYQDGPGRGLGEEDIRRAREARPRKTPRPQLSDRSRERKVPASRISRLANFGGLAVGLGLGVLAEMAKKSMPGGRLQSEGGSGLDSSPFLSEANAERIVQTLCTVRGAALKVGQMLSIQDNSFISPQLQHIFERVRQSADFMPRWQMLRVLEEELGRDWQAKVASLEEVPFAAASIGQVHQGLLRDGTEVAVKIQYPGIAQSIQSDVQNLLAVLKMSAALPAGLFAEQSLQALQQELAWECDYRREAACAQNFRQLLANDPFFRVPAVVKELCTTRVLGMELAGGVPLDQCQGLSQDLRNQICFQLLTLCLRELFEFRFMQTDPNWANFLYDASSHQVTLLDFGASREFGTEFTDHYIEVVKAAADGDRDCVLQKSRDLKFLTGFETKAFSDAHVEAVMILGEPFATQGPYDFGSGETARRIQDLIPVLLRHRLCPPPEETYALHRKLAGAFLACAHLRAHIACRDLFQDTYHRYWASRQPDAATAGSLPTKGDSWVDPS

[3] = biological target: T3, SNF-related serine/threonine-protein kinase (Homo sapiens) (UniProt Q9NRH2); experiment: Selectivity interaction (ActivX KiNativ screen (kinase selectivity in THP-1 cell lysates)) EUB0000639a SNRK; assay type: subcellular; conditions: lysate, at 0.2 µM
T3 sequence (whole entry): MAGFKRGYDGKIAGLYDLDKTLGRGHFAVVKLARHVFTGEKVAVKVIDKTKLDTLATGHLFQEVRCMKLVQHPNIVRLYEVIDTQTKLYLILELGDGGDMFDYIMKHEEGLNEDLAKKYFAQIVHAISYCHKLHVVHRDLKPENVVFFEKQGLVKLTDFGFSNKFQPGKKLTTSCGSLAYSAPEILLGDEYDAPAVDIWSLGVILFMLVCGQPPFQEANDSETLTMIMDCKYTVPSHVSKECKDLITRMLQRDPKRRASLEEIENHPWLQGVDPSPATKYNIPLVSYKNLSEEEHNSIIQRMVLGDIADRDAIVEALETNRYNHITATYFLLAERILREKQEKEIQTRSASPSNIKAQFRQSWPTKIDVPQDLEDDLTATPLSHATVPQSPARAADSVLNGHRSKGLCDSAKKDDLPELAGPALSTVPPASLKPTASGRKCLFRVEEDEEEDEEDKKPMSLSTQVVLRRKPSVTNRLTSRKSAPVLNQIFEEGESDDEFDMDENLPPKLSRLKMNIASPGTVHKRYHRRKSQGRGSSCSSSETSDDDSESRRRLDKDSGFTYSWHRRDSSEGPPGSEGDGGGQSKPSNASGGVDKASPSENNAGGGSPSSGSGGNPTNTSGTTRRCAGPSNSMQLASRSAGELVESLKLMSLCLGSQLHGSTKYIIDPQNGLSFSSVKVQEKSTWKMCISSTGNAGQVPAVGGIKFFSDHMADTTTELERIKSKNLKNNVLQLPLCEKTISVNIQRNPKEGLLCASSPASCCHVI

[4] = biological target: Non-receptor tyrosine-protein kinase TYK2 (Homo sapiens, UniProt P29597); experiment: Selectivity interaction (KinomeScan (DiscoverX)) EUB0000607a TYK2; conditions: at 10 µM
[5] = biological target: Serine/threonine-protein kinase PAK 2 (Homo sapiens) (UniProt Q13177); experiment: Selectivity interaction (KinomeScan (DiscoverX)) EUB0001049a PAK2; conditions: at 1 µM
Aurora kinase B = Aurora kinase B (Homo sapiens, UniProt Q96GD4); experiment: Selectivity interaction (Enzymatic assay) EUB0001199aCl AURKB
[6] = biological target: Endothelin receptor type B (Homo sapiens) (UniProt P24530); experiment: Selectivity interaction (Eurofins CEREP Diversity Profile (receptors and ion channels)) EUB0000279b EDNRB; conditions: at 10 µM
[7] = biological target: Activin receptor type-2B (Homo sapiens) (UniProt Q13705); experiment: Selectivity interaction (Ambit KINOMEscan and KiNATiv profiling in Jurkat cells) EUB0000090b ACVR2B; assay type: cell-based; conditions: at 1 µM
Activin receptor type-2B (Homo sapiens), sequence (Q13705 whole entry): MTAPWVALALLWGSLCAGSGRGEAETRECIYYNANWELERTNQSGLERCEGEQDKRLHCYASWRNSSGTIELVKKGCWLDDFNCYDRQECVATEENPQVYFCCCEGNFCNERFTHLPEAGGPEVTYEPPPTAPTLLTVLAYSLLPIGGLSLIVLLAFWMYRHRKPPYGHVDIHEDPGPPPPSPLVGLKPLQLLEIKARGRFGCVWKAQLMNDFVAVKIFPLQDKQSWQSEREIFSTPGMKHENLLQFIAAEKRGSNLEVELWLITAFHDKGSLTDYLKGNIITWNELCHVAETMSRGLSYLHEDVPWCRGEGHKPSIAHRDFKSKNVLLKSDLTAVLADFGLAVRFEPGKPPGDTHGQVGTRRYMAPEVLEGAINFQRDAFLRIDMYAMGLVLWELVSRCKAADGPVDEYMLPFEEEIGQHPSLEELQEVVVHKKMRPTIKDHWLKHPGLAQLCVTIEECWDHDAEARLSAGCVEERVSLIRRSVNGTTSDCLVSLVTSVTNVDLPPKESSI

Aurora kinase B, sequence (Q96GD4 whole entry): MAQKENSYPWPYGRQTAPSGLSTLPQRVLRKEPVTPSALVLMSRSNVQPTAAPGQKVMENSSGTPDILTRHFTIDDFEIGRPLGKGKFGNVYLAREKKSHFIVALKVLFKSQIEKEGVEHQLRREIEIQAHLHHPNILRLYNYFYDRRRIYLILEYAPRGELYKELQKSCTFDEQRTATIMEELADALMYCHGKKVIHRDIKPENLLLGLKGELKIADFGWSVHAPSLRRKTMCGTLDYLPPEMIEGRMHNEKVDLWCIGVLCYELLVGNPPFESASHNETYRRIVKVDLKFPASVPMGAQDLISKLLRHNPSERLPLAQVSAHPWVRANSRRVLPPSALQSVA
Non-receptor tyrosine-protein kinase TYK2, sequence (P29597 whole entry): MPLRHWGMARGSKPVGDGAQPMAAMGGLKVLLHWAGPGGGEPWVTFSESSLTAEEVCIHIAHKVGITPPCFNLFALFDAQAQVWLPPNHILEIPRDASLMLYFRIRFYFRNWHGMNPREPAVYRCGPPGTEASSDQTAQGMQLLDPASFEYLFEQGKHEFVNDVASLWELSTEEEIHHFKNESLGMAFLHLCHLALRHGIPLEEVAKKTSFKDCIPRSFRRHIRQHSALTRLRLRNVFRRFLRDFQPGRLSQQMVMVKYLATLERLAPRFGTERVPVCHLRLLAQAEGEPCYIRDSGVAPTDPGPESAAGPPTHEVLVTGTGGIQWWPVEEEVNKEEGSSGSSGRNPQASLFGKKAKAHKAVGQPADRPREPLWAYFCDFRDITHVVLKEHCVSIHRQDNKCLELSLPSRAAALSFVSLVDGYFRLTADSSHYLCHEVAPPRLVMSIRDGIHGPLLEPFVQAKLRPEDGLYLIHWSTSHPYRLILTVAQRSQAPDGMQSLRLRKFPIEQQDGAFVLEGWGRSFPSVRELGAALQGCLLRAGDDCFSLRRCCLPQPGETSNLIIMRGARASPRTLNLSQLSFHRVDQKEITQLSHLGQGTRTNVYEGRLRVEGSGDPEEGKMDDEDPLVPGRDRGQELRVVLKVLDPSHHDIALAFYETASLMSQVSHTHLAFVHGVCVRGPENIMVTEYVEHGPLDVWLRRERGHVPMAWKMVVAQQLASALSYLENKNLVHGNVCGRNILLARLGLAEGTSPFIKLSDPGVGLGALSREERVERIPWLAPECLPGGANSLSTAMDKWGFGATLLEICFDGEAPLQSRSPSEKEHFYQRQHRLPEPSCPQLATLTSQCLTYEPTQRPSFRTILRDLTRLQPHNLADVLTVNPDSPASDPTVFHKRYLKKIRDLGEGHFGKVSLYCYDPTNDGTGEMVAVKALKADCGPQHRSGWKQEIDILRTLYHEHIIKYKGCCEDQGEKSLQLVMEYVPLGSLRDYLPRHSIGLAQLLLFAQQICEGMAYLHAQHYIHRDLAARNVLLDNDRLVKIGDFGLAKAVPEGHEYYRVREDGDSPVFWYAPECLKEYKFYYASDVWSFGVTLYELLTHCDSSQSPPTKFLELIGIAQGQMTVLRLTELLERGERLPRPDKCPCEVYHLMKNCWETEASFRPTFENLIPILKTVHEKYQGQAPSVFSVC
Endothelin receptor type B (Homo sapiens), sequence (P24530 whole entry): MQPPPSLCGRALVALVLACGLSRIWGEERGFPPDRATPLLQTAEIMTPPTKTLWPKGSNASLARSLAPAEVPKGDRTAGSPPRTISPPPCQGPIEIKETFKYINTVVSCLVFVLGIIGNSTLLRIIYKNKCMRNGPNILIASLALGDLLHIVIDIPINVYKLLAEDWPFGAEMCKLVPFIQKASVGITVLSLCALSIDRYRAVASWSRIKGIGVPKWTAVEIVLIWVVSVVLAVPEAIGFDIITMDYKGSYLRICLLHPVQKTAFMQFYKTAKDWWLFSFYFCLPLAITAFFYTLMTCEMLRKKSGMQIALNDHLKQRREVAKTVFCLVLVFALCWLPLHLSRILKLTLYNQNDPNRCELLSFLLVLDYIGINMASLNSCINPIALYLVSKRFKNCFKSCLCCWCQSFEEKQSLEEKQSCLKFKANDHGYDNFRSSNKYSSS
Serine/threonine-protein kinase PAK 2 (Homo sapiens), sequence (Q13177 whole entry): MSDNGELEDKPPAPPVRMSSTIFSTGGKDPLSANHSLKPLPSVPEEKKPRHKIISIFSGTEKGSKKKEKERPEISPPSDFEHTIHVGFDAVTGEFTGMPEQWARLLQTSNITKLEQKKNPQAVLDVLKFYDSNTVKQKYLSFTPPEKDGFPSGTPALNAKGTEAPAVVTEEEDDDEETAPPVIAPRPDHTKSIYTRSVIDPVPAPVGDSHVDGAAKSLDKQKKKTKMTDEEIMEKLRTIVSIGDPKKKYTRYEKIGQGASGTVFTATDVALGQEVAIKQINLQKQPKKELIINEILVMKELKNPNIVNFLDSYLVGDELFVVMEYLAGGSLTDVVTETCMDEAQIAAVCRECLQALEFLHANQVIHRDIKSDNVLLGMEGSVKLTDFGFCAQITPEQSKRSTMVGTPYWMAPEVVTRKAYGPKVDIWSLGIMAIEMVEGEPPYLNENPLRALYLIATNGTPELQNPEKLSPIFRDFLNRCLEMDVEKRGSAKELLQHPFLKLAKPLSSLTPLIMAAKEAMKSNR

Structure (SMILES): COc1cc(N(C)c2ccnc3ccc(C(F)(F)F)cc23)cc(OC)c1OC
- % binding [1]: 43%

Structure (SMILES): Cc1cc([C@@H](C)Nc2ccccc2C(=O)O)c2nc(N3CCOCC3)cc(=O)n2c1 [AZD-6482]
- % of control [2]: 79%

Structure (SMILES): CC[C@@H]1[C@H](F)C(=O)N[C@@H]1COc1nccc2cc(C(N)=O)c(OC)cc12 [ZIMLOVISERTIB]
- % of inhibition [3]: 8.5%

Structure (SMILES): CNC(=O)Nc1ccc(-c2nc(N3CC4CCC(C3)O4)c3cnn(C4CCC5(CC4)OCCO5)c3n2)cc1
- % of control [4]: 100%

Structure (SMILES): COc1cc(Nc2nc(C)cc(-c3cnn4nc(OC)ccc34)n2)cc(C(F)(F)F)c1
- % of control [5]: 75%

Structure (SMILES): CN1Cc2nccc(-c3cn(C)nc3-c3ccc(F)cc3)c2C1=O
- IC50 (Aurora kinase B): 10.2 µM

Structure (SMILES): CC(=O)c1cc(-c2ccccc2OCC2CC2)c2ncccn12
- % of control [6]: 84%

Structure (SMILES): CN(C)C/C=C/C(=O)Nc1ccc(C(=O)N2CCCC(Nc3ncc(Cl)c(-c4c[nH]c5ccccc45)n3)C2)cc1 (stereo not drawn)
- % of control [7]: 77%
